# Source: ChEMBL document CHEMBL1201862, “PubChem BioAssay data set” (2004)
# Active and inactive are the calls of the source.
# How the values were obtained:
# SUMO E1/E2 = SUMO E1/E2 (Homo sapiens, UniProt P63279+Q9UBE0+Q9UBT2); test: SAR analysis of SUMOylation using HTRF in an in-Vitro dose response assay. [Related pubchem assays (depositor defined):AID2006, AID2011, AID2018, AID2069, AID2658]; format: functional
# [1] = biological target: T1, Voltage-gated N-type calcium channel alpha-1B subunit/Amyloid beta A4 precursor protein-binding family A member 1 (Homo sapiens, UniProt Q00975+Q02410); test: disruptors of Mint-PDZ/N-type channel peptide interaction – biochemical, HTRF, set 2, SAR follow-up (AID 434980); format: functional
# [2] = biological target: T1, Voltage-gated N-type calcium channel alpha-1B subunit/Amyloid beta A4 precursor protein-binding family A member 1; test: disruptors of Mint-PDZ/N-type channel peptide interaction – biochemical, HTRF, SAR follow-up (AID 2489); format: functional
# [3] = biological target: Voltage-dependent T-type calcium channel subunit alpha-1H (Homo sapiens, UniProt O95180); test: human CACNA1H calcium influx blockade – cell-based, synthetic library set 2, HEK293 HH8, Fluo-4, SAR follow-up (AID 493023); format: functional
# [4] = biological target: DNA damage-inducible transcript 3 protein (Mus musculus, UniProt P35639); format: functional, Cricetulus griseus
# X-box-binding protein 1 = biological target: T2, X-box-binding protein 1 (Homo sapiens, UniProt P17861); format: functional, Cricetulus griseus;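 also: confirmatory dose-response counter-screen serving a CHOP assay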
# T2 sequence (P17861 whole entry): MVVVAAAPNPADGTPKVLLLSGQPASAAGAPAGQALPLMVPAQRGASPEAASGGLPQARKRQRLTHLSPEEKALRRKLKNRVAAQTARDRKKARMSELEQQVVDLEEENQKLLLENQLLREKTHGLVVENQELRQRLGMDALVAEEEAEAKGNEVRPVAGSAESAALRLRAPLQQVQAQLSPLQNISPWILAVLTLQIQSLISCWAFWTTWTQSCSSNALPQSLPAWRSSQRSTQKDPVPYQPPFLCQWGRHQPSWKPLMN
# Cytochrome P450 2D6 = Cytochrome P450 2D6 (Homo sapiens, UniProt P10635);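 also: CYP2D6 member of a cytochrome P450 panel assay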
# Paired box protein Pax-8 = Paired box protein Pax-8 (Homo sapiens, UniProt Q06710); test: PAX8 transcriptional activity inhibition in RMG-I – RMG-I cells, luciferase, cherry-pick, dose response (AID 687027); format: functional, cell-based;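 also: luciferase reporter driven by Pax8 target thyroperoxidase promoter measured by SteadyGlo luminescence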
# HEK293 [5] = test: cells; details: Homo sapiens
# HEK293 [6] = test: cells; details: Homo sapiens; remark: listed apart in the source
# Bcl-2-related protein A1 = biological target: T3, Bcl-2-related protein A1 (Mus musculus, UniProt Q07440); format: functional;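 also: confirmatory dose–response counterscreen on Bfl-1, used to check hits from a UBC13 polyubiquitin inhibitor campaign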
# T3 sequence (Q07440 whole entry): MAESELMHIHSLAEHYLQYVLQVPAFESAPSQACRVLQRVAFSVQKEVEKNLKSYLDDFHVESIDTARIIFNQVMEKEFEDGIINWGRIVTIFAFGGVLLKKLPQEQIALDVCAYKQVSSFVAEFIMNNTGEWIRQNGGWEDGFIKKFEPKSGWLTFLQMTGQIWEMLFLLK
# [7] = biological target: T4, Ubiquitin-conjugating enzyme E2 N (Homo sapiens, UniProt P61088); format: functional
# T4 sequence (P61088 whole entry): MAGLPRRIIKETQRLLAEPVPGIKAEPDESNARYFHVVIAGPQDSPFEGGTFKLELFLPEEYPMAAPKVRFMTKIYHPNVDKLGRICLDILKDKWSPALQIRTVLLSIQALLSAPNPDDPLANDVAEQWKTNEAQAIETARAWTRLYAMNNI
# [8] = biological target: T4, Ubiquitin-conjugating enzyme E2 N; format: functional; remark: listed apart in the source
# [9] = biological target: Lysine-specific demethylase 4C (Homo sapiens, UniProt Q9H3R0); test: inhibition of JMJD2C H3K9me3 demethylation – biochemical, DELFIA europium, cherry-picked samples, dose response (AID 488835); format: functional
# [10] = biological target: Intestinal-type alkaline phosphatase (Mus musculus, UniProt P24822); test: PubChem AID 488875; format: functional
# [11] = biological target: T5, Intestinal-type alkaline phosphatase (Homo sapiens, UniProt P09923); test: human intestinal alkaline phosphatase activators, dose response, biochemical, luminescence, uHTS hits (AID 463120); format: functional
# [12] = biological target: T5, Intestinal-type alkaline phosphatase; test: activation of human intestinal alkaline phosphatase – biochemical, luminescent, uHTS hits, set 2, dose response (AID 488817); format: functional;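 also: potency of activators that raise enzyme activity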
# [13] = biological target: T6, Alkaline phosphatase, tissue-nonspecific isozyme (Homo sapiens, UniProt P05186); test: activation of tissue-nonspecific alkaline phosphatase – biochemical, TNAP isozyme, human IAP uHTS hits, selectivity assay for human IAP activator project, dose response (AID 488886); format: functional;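 also: potency of compounds raising TNAP activity as a selectivity check on IAP activators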
# T6 sequence (P05186 whole entry): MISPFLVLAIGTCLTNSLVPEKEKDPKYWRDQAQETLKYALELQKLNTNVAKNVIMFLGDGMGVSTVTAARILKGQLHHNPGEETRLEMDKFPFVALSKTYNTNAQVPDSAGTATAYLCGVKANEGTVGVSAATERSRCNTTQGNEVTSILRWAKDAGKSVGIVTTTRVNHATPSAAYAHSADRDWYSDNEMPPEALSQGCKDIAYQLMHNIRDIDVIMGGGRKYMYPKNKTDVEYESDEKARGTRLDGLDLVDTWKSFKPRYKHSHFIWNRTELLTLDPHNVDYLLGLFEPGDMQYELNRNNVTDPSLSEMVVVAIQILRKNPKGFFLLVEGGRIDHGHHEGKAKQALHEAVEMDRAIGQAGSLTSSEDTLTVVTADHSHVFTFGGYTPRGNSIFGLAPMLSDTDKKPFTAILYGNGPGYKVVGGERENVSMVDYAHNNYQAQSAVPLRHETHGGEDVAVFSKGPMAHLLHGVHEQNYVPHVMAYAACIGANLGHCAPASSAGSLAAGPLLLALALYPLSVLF
# T5 sequence (P09923 whole entry): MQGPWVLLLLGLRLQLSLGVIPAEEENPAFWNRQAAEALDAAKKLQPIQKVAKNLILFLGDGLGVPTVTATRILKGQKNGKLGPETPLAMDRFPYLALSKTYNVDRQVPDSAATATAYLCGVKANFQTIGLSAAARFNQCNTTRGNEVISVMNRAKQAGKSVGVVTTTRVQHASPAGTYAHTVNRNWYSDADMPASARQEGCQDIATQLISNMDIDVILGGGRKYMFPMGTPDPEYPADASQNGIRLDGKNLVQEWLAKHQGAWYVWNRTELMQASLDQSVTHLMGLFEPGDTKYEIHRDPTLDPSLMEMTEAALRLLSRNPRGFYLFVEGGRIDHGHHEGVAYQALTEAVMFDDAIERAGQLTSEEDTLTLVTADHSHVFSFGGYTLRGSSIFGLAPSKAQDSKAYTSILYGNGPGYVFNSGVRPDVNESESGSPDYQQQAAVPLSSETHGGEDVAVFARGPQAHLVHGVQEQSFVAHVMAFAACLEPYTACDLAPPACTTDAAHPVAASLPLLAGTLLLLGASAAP
# T1 sequence (Q00975 whole entry): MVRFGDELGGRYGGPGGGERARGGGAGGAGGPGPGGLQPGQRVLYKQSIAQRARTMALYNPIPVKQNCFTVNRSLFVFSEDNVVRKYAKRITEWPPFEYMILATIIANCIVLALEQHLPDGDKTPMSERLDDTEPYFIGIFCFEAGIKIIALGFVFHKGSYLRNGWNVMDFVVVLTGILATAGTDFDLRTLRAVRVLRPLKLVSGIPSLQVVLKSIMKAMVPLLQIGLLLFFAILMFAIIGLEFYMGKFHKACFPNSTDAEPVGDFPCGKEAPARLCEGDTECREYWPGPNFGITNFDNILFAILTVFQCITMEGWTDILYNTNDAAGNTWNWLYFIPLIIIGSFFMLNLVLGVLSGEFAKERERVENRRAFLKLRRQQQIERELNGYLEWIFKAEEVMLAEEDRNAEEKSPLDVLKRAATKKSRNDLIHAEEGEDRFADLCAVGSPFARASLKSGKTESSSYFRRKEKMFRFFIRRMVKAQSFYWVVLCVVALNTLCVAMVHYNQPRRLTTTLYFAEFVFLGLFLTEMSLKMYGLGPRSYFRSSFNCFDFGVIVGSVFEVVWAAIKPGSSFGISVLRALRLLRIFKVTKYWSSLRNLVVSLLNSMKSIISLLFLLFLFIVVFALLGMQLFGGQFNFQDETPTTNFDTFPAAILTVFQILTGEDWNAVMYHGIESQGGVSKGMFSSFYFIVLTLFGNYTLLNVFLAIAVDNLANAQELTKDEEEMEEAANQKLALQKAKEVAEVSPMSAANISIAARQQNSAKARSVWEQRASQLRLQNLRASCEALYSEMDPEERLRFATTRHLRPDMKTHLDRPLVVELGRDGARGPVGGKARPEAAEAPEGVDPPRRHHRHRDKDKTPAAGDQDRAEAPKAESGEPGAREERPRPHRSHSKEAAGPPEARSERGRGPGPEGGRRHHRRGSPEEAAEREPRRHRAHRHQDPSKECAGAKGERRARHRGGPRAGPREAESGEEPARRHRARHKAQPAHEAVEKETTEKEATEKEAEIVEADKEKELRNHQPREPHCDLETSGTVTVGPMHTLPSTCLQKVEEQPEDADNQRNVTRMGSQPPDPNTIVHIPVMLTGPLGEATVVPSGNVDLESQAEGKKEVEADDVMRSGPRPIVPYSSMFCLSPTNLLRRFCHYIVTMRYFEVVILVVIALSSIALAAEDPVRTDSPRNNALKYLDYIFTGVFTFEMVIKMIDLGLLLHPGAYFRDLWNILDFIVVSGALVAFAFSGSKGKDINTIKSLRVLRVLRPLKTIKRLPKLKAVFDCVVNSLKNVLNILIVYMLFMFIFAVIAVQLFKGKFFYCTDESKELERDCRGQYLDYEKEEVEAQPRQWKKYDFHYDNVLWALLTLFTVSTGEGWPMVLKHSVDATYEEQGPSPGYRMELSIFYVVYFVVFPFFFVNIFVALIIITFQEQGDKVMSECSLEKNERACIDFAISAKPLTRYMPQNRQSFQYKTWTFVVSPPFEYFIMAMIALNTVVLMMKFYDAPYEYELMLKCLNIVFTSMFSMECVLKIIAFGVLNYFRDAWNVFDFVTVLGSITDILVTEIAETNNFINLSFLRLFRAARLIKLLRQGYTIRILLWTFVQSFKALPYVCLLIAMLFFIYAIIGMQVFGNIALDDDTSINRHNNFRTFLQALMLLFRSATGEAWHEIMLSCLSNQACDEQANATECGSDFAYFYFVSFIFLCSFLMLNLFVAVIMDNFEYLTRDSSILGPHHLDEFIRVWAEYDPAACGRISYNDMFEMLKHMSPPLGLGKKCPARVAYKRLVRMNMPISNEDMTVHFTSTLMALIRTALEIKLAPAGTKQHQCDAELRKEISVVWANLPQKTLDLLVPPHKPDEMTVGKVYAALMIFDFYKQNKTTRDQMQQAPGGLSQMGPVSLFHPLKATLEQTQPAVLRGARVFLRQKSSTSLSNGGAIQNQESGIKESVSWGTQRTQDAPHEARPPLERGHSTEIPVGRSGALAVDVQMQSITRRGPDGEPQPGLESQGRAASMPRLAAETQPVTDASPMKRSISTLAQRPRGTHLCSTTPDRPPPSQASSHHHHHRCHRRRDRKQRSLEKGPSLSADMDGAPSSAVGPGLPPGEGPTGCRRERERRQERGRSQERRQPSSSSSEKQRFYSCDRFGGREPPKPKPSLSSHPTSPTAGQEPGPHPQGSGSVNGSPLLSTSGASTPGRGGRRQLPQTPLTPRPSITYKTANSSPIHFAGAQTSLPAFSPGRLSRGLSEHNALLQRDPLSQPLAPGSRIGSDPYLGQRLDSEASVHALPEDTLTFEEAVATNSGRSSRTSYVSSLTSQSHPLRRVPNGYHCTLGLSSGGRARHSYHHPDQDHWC
# T1 sequence (Q02410 whole entry): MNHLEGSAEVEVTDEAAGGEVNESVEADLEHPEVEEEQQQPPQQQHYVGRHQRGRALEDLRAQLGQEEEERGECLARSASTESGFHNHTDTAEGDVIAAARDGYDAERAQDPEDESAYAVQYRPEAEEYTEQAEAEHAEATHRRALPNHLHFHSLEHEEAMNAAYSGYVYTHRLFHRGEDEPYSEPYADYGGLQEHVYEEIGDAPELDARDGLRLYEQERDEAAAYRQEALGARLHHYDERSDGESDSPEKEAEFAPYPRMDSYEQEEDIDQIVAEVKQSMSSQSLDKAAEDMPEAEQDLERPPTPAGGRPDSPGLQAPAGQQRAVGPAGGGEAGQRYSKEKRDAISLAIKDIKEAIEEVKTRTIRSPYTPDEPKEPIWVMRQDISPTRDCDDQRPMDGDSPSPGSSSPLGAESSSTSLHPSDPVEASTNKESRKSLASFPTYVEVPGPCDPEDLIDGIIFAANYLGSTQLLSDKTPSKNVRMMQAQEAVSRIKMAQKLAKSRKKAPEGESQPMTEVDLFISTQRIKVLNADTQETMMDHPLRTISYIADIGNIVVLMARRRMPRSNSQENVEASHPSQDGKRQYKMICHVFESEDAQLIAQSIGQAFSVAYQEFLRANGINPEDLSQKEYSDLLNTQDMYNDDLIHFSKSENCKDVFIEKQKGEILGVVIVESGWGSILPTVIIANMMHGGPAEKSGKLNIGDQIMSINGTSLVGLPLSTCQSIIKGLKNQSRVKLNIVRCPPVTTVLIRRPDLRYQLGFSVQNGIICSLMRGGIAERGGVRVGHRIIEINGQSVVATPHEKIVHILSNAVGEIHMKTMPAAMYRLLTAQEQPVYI
# Sequence of DNA damage-inducible transcript 3 protein (P35639 whole entry): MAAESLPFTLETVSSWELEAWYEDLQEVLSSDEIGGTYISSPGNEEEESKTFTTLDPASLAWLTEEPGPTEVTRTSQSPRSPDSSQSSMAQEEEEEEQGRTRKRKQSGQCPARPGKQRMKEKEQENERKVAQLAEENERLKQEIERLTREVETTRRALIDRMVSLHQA
# Sequence of Cytochrome P450 2D6 (P10635 whole entry): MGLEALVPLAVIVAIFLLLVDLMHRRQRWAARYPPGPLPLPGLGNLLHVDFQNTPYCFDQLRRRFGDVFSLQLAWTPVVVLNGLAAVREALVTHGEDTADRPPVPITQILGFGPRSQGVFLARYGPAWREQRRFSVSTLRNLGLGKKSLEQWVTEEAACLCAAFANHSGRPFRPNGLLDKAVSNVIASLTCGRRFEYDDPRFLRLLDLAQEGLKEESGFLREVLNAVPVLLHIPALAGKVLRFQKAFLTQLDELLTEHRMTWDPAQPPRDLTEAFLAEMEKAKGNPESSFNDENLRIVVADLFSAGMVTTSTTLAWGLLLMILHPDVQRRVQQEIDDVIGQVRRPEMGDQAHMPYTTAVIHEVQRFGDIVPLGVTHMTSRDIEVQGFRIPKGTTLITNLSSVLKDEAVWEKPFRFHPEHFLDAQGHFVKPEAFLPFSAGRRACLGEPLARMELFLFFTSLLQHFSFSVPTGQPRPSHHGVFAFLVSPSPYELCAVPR
# Sequence of Intestinal-type alkaline phosphatase (Mus musculus, UniProt P24822) (P24822 whole entry): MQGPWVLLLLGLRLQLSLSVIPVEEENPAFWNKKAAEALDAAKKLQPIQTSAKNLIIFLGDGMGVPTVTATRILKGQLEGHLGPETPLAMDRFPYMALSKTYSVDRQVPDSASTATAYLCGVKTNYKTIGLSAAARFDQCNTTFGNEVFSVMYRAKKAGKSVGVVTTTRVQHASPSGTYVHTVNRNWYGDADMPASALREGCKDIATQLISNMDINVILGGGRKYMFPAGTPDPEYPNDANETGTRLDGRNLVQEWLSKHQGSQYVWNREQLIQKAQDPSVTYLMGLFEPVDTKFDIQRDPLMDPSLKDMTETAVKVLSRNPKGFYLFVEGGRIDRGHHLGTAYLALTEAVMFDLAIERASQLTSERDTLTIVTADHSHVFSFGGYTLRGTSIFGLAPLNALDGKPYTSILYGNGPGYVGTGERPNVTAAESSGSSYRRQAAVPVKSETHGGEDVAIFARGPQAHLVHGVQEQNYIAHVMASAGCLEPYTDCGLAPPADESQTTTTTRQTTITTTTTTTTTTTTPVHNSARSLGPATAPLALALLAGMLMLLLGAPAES
compound,measurement,setting,value
O=C(COC(=O)c1cc(-c2ccco2)nc2ccccc12)NCc1ccccc1,IC50,SUMO E1/E2,4.07 µM (active)
same,IC50,[1],> 56.8 µM (inactive)
same,IC50,[2],> 56.8 µM (inactive)
O=C(NC1CCC2CN(Cc3ccccc3)CC21)c1cc(Cl)cc(Cl)c1 (centres undefined),EC50,[3],4 µM (active)
CCCCC1=CC2=C(c3ccco3)C(=O)C(C)(OC(=O)c3ccc(OC)cc3)C(=O)C2=CN1Cc1ccccc1 (centres undefined),Absolute IC50 (CHOP),[4],10 µM
same,Absolute IC50 (XBP1),X-box-binding protein 1,10 µM
CC1CCN(C(=O)CSc2nc3cccnc3n2C)CC1,AC50,Cytochrome P450 2D6,inconclusive
CCOC(=O)c1c(-c2ccc(F)cc2)csc1NC(=O)CN1C(=O)NC2(CCCCC2C)C1=O (centres undefined),AC50,Paired box protein Pax-8,4.11 µM (active)
same,EC50,HEK293 [5],> 59.6 µM (inactive)
same,EC50,HEK293 [6],> 59.6 µM (inactive)
O=C(NCCCN1CCN(c2ccccc2)CC1)C1CCCN(c2ncnc3c2nc2n3CCCCC2)C1 (centres undefined),IC50,Bcl-2-related protein A1,> 20 µM (inactive)
same,IC50,[7],7.51 µM (active)
same,IC50,[8],7.05 µM (active)
CN1C(=O)C(Cc2ccc(OCc3ccccc3)cc2)C(=O)N(C)C1=O,AC50,[9],9.21 µM (active)
Cn1c(/C(C#N)=C(\O)c2ccc(Br)s2)nc2ccccc21,EC50,[10],> 100 µM (inactive)
same,EC50,[11],77 µM (active)
same,EC50,[12],60 µM (active)
same,EC50,[13],45 µM (active)
CC(C)(C)CCN1CCC[C@H](NC(=O)COc2ccc(F)c(Cl)c2)C1,EC50,[3],10 µM (active)
